This is an account of results in patent publication US20020086278A1, “CHROMOGENIC MEDIA CONTAINING BLOOD OR HEMIN” (priority 1999, published 2002).

The subject of one series is cakr 34135. Briefly: Example 3: colony color on chromogenic TSA II with 5% sheep blood (chromogen in medium). Type of series: cell-based.
Series [1] relates to Group D Strep / Enterococcus. Described as above. The following applies: 7 of 7 strains.
The nature of series [2]: Precipitate of chromogen on pre-plated media. In kind it is physicochemical. The method, then: 50 μl of each chromogen solution was added to the surface of each of the following pre-plated media (one chromogen solution per plate):
The solution was dispersed using a spreader and allowed to dry 3-4 hours in a hood.

Series [3] concerns Staphylococcus Coag Neg (step). Briefly: Example 3: colony color on chromogenic TSA II with 5% sheep blood (chromogen in medium). The following applies: for Colony Color on Various Chromogenic TSA II with 5% Sheep Blood: 18 h. In kind it is cell-based.
Another series deals with S. pneumoniae 6303. The series is described as follows: Example 2: effect of incubation conditions on colony color formation. Type of series: cell-based, Streptococcus pneumoniae. The following applies: TSA II 5% Sheep Blood, 0.004 g/plate; 24 h, CO2.
Another series has as its system C. perfringens 13124. Type of series: cell-based, Clostridium perfringens. The following applies: TSA II 5% Sheep Blood, 0.004 g/plate; 5 d, ANA.
The test system of the next series is 55 strains. The series is described as follows: Example 3: color, hemolytic activity and growth over all 55 strains. In kind it is cell-based. The following applies: Gram-positives. The text has this:
Steers, E. et al., Antibiot.

Another series has as its system S. aureus 25923. Briefly: Example 2: effect of incubation conditions on colony color formation. Type of series: cell-based, Staphylococcus aureus.
Series [4] concerns S. epidermidis 12228. The series is described as follows: Example 1: growth and colony color on plates surface-spread with chromogen. The following applies: for Color: S. epi 12228. In kind it is cell-based.
Series [5] is described as follows: Solubility of chromogen in DMSO. Type of series: physicochemical. As to conditions: 0.08g in 1.0 ml DMSO. How it is done: In this series of experiments, 0.08g of each chromogen indicated below was added to 1.0 ml DMSO and thoroughly mixed.
Series [6] has as its system N. sicca 29193. Briefly: Example 2: effect of incubation conditions on colony color formation. Type of series: cell-based.
Series [7] has as its system Staphylococcus aureus 25923. The series is described as follows: Example 1: growth and colony color on plates surface-spread with chromogen. Type of series: cell-based. As to conditions: S. aureus 25923.
Another series relates to H. influenzae 35540. The series is described as follows: Example 2: effect of incubation conditions on colony color formation. Type of series: cell-based.
Series [8] deals with S. epidermidis 12228. The description is as above. In kind it is cell-based, Staphylococcus epidermidis.
Series [9] has as its system Haemophilus influenzae 10211. The series is described as follows: Example 1: growth and colony color on plates surface-spread with chromogen. Type of series: cell-based. The following applies: Substrate on Choclate II Agar, H. influ. 10211.
In the next series the test system is H. influenzae 10211. The series is described as follows: Example 2: effect of incubation conditions on colony color formation. Type of series: cell-based.
The subject of series [10] is Neisseria meningitidis 13090. Briefly: Example 1: growth and colony color on plates surface-spread with chromogen. Type of series: cell-based.
Series [11] deals with N. sicca 29193. The series is described as above. In kind it is cell-based.
Another series relates to N. meningitidis 13090. In kind it is cell-based. The following applies: Chocolate II Agar, 0.004 g/plate; 24 h, CO2.
Series [12] relates to Haemophilus influenzae 35540. Briefly: Example 1: growth and colony color on plates surface-spread with chromogen. In kind it is cell-based. The following applies: for Color: Substrate on Choclate II Agar, H. influ. 35540.
Series [13] deals with bacterial test strains of Example 1. The series is described as follows: Example 1: inhibitory effect over all test strains. Type of series: cell-based. The following applies: Example 1, all test strains.
The subject of the next series is S. mitis 6249. The series is described as follows: Example 2: effect of incubation conditions on colony color formation. In kind it is cell-based, Streptococcus mitis. The following applies: TSA II 5% Sheep Blood, 0.004 g/plate; 24 h, CO2.
Setting [14] is: Substrate on Choclate II Agar, N. mening. 13090.

Counter-ions that a name gives are not always drawn. Like-named read-outs stand apart in the source and are kept apart here.

Consider `OC[C@H]1O[C@@H](Oc2c[nH]c3ccc(Br)c(Cl)c23)[C@H](O)[C@@H](O)[C@@H]1O` [X-Glucoside, 5-Br-4-Cl-3-indolyl-β-D-glucopyranoside], for which the “Colony Color” value is reported as 0 in the series with cakr 34135 (CO2, 18 h); 0 in the series with cakr 34135 (CO2, 21 h); “blue” in series [1]; 0 in [3] (step 12228, CO2, 21 h); 0 in [3] (step 12228, air, 21 h); 0 in series [3] (step cdc1, CO2, 21 h). For the same compound, the “Colony Color” value in [3] (step cdc1, air, 21 h) is listed as 0; in series [3] (step cdc2, CO2, 21 h), 0; in series [3] (step cdc2, air, 21 h), 0; in series [3] (step cdc3, CO2, 21 h), 0; in series [3] (step cdc3, air, 21 h), 0; in series [3] (step cdc4, CO2, 21 h), 0. Also, the “Colony Color” value in series [3] (step cdc4, air, 21 h) came out at 0. The “Precipitate on plates after 1 week” value in series [2] is listed as “some precipitate was evident”. Moreover, the “Colony Color (Summary)” value in series [3] (chromogenic TSA II with 5% Sheep Blood, 0.1 g/l, 5 strains tested) worked out at 0. Also, the “Colony Color on Various Chromogenic TSA II with 5% Sheep Blood” value in series [3] (step 12228, CO2) is recorded as 0; in series [3] (step cdc1, CO2) it was 0; in series [3] (step cdc4, CO2) it was 0; in series [3] (stha cdc2, CO2), 0; in series [3] (stsa cdc3, CO2), 0.
On to `OC[C@H]1O[C@@H](Oc2c[nH]c3ccc(Br)c(Cl)c23)[C@H](O)[C@@H](O)[C@H]1O` [X-Gal, 5-Br-4-Cl-3-indolyl-β-D-galactopyranoside], for which the Colony Color result in the series with S. pneumoniae 6303 is recorded as “blue (l)”; with cakr 34135 (CO2, 21 h) it was 0; with C. perfringens 13124 it was “blue (m)”; in [3] (step 12228, CO2, 21 h), 0; in series [3] (step 12228, air, 21 h), 0; in series [3] (step cdc1, CO2, 21 h), 0. Besides, the “Colony Color” value worked out at 0 in series [3] (step cdc1, air, 21 h); 0 in series [3] (step cdc2, CO2, 21 h); 0 in series [3] (step cdc2, air, 21 h); 0 in series [3] (step cdc4, CO2, 21 h); 0 in [3] (step cdc4, air, 21 h). Moreover, in the series on 55 strains, the “Usefulness for Gram-positives” value is given as “not particularly useful”.
Take `O=P(O)(O)Oc1c[nH]c2cc(Cl)c(Br)cc12` [Mag-Phos, 5-Br-6-Cl-3-indolyl-phosphate, p-touidine salt]: the Colony Color entry was “purple (m)” in the series with S. aureus 25923; “lgp” in the series with cakr 34135 (CO2, 21 h); “purple (m)” with N. sicca 29193 [6]; “purple (m)” with H. influenzae 35540; “purple (m)” in the series on S. epidermidis 12228 [8]; “purple (m)” in the series with H. influenzae 10211. Moreover, the Colony Color entry with N. meningitidis 13090 is listed as “NC (col”; in [3] (step 12228, CO2, 21 h) it was 0; in series [3] (step 12228, air, 21 h), “lp”; in series [3] (step cdc1, CO2, 21 h), “lp”; in [3] (step cdc1, air, 21 h), “lp”; in series [3] (step cdc2, CO2, 21 h), 0. The “Colony Color” value in [3] (step cdc2, air, 21 h) is 0; in [3] (step cdc3, CO2, 21 h), 0; in series [3] (step cdc3, air, 21 h), 0; in series [3] (step cdc4, CO2, 21 h), “lp”; in series [3] (step cdc4, air, 21 h), “lp”. The Color result (with S. epidermidis 12228 [4] (Choc II); in the series with S. epidermidis 12228 [4] (TSA II 5SB); with S. epidermidis 12228 [4] (TSA Plain); in series [7] (Choc II); in series [7] (TSA II 5SB); in series [7] (TSA Plain)) was “purple” throughout. For the same compound, the Color entry in [9] is listed as “purple”; in [9] (listed as Mag-phos), “dark purple”; in series [10] (setting [14]), “colorless”; in the series with N. sicca 29193 [11] (Substrate on Choclate II Agar, N. sicca. 29193), “purple”; in series [12], “purple”; in series [12] (listed as Mag-phos), “dark purple”. Moreover, the “Substrates Producing Color” value in the series with S. epidermidis 12228 [4] (Summary of Table I, S. epidermidis 12228) is on record as “Mag-phos”; in [7] (Summary of Table I) it was “Mag-phos”; with N. sicca 29193 [11] (Summary of Table I, N. sicca 29193), “Mag-phos”; in series [12] (Summary of Table I, H. influenzae 35540, 10211), “Mag-phos”. Further, in [5], the “Solubility / appearance of solution in DMSO” value was “clear and light orange in color”. Besides, the “Precipitate when spread / placed on the plated media” value in series [2] (50 μl DMSO solution on pre-plated media) was “somewhat insoluble”. Moreover, in series [10], the Growth result is recorded as “= NC”. Moreover, the Inhibitory effect entry in [13] is recorded as “most inhibitory effect”.
Turning to `CC(=O)N[C@H]1[C@H](Oc2c[nH]c3ccc(Br)c(Cl)c23)O[C@H](CO)[C@H](O)[C@@H]1O` [X-Acglmn, 5-Br-4-Cl-3-indolyl-N-Acetyl-β-D-galactosaminide], the Colony Color result is listed as “blue (l)” with S. pneumoniae 6303; 0 in the series on cakr 34135 (CO2, 18 h); 0 in the series with cakr 34135 (CO2, 21 h); “dark blue” in series [1]; “blue (l)” in the series with C. perfringens 13124; “blue (vl)” with S. mitis 6249. The Colony Color result in [3] (one S. epidermidis) was “blue”; in series [3] (step 12228, CO2, 21 h) it was 0; in series [3] (step 12228, air, 21 h) it was 0; in [3] (step cdc1, CO2, 21 h), 0; in series [3] (step cdc1, air, 21 h) it was 0; in [3] (step cdc2, CO2, 21 h), 0. Also, the “Colony Color” value in [3] (step cdc2, air, 21 h) was found to be 0; in [3] (step cdc3, CO2, 21 h), 0; in [3] (step cdc3, air, 21 h), 1b; in series [3] (step cdc4, CO2, 21 h), 0; in [3] (step cdc4, air, 21 h), 0. Moreover, the “Precipitate on plates after 1 week” value in series [2] is recorded as “some precipitate was evident”. The Growth entry in series [10] (setting [14]) is reported as “<”. In [10] (Summary of Table I, N. meningitidis 13090), the “Substrates Producing Growth Inhibition” value is reported as “Slight inhib w/ X-”. For the same compound, the “Colony Color on Various Chromogenic TSA II with 5% Sheep Blood” value in series [3] (step 12228, CO2) was 0; in series [3] (step cdc1, CO2), 0; in series [3] (step cdc4, CO2), 0; in series [3] (stha cdc2, CO2), 0; in series [3] (stsa cdc3, CO2) it was 0.
